The results in this text go back to patent US20020061514A1, “Assay for identifying modulators of chondrogenesis” (priority 2000, published 2002).

Assay type in all cases: cell-based, mouse
Assay [1] has as its system pGL3(4X48) Sox9 responsive reporter gene. Briefly: pGL3(4X48) luciferase reporter gene activity in transiently transfected primary limb mesenchymal cultures. As to conditions: for normalized RLU (pGL3(4X48) reporter gene activity): RLU values normalized to control reporter activity. The source says:
(§1) To increase reporter gene sensitivity, the Sox9 responsive reporter gene from 4X48-p89 luciferase (14) was subcloned into pGL3-basic (Promega). A fragment containing the reiterated (4 X 48) Sox9 binding sequence upstream of the mouse col II minimal promoter (−89 to +13) was liberated from 4X48-p89 plasmid by digestion with Bam HI and Hind III. This fragment was subcloned into the Bgl II and […] sites of pGL3-basic (Promega) to generate pGL3(4X48). To generate an EGFP-based col II reporter, the luciferase gene within pGL3(4X48) was replaced with EGFP-N1 (Clontech). For expression of genes in primary cultures a modified version of pSG5 (Stratagene), pSG5HS, was used which contains two additional restriction endonuclease sites, Hind III and Spe I. The myogenin promoter-luciferase construct was made by subcloning a 1.14 kB fragment of the myogenin promoter (containing the region from pGZ1092) from plasmid pGBB into pGL3-basic. The cardiac actin promoter-luciferase vector was generated by subcloning a fragment of the cardiac actin promoter from −440 to +6 into pGL3-basic.
(§2) Limb mesenchymal cells were harvested from embryonic age 11.25-11.75 mouse embryos as previously described (19). To establish proximal or distal cultures the proximal half of each limb bud was separated from the distal half, and each pool of limb fragments was processed separately. The cells were resuspended at a density of 1.5−2×10^7 cells/ml. For transfection purposes, cells were mixed with a DNA/FuGene6 mixture in a 2:1 ratio. FuGene6-DNA mixtures were prepared according to the manufacturer's instructions (Roche Biomolecular). Briefly, 1 μg of reporter, 1 μg of expression vector and 0.05 μg of pRLSV40 (Promega) were mixed for a total of ˜2 μg DNA in 100 μl of media and FuGene6. Fifty microlitres of the DNA mixture was transferred into a sterile 1.5 ml eppendorf tube, followed by 100 μl of cells. Cells were gently triturated and 10 μl was used to seed a single well of a 24-well culture dish. After 1.5 hrs in a humidified CO2 incubator, 1 ml of media containing compounds of interest was added to each well and was subsequently replaced 24 hrs following transfection.
Analysis of reporter gene activity using the Dual Luciferase Assay System was done following the manufacturer's instructions (Promega). Briefly, ˜48 hrs post-transfection, cells were washed once with PBS and lysed in 100 μl of Passive Lysis Buffer for 20 min. Firefly and renilla luciferase activities were determined using 40 μl of lysate in a 96-well plate reading luminometer (Molecular Devices).
Background: Reporter assays use an easily measured gene product as a stand-in for the process of interest.

Assay [2] has as its system limb mesenchymal cells. The assay can be described thus: Alcian blue staining of cartilage nodules in primary limb mesenchymal cultures. To be noted: 10 ng/ml, 2 and 4 days, vs untreated cultures. Here is the method: as §2
Assay [3] deals with pGL3-4X48-EGFP reporter (Sox9 activity). The assay can be described thus: pGL3(4X48)-EGFP reporter in primary limb mesenchymal cultures. As to conditions: 10 ng/ml, 64 hours post-transfection, vs untreated control cultures.
Source text: as §1
Limb mesenchymal cells were harvested from embryonic age 11.25-11.75 mouse embryos as previously described (19). To establish proximal or distal cultures the proximal half of each limb bud was separated from the distal half, and each pool of limb fragments was processed separately. […]

Regarding Wnt3a, the “normalized RLU (pGL3(4X48) reporter gene activity)” value (“normalized RLU” below) in assay [1] (co-transfected expression construct) is 0.5.
On to “BMP-4: bone morphogenetic protein added to cultures at 10 ng/ml”, for which the “cartilage nodule number (alcian blue)” value in assay [2] is given as “dramatic increase in nodule number”. For the same molecule, in assay [1] (protein added at 10 ng/ml), the “normalized RLU” value worked out at 4.2. Further, in assay [1] (treatment of reporter gene-transfected cells, 10 ng/ml (FIG. 3H)), the “increase in reporter gene activity” value was ~4.5 fold. In addition, the “number of EGFP-expressing (fluorescing) cells” value in assay [3] was “enhanced”.

B1: Noggin: BMP pathway protein added at 100 ng/ml (protein, UniProt Q13253 28-232, looked up)
Noggin: QHYLHIRPAPSDNLPLVDLIEHPDPIFDPKEKDLNETLLRSLLGGHYDPGFMATSPPEDRPGGGGGAAGGAEDLAELDQLLRQRPSGAMPSEIKGLEFSEGLAQGKKQRLSKKLRRKLQMWLWSQTFCPVLYAWNDLGSRFWPRYVKVGSCFSKRSCSVPEGMVCKPSKSVHLTVLRWRCQRRGGQRCGWIPIQYPIISECKCSC
Consider B1, for which the “normalized RLU” value in assay [1] (protein added at 100 ng/ml) amounted to 0.3.
